From patent US9426996B2, “Use of benzoxaboroles as volatile antimicrobial agents on meats, plants, or plant parts” (AgroFresh Inc., priority 2013, dated 2016)

Legend:
Escherichia coli = experiment: in vivo volatile bioassay on fresh beef
Experimental: (§1) In order to assess the in vivo activity of volatile antimicrobial Compound A, a volatile bioassay is developed to evaluate the control of Escherichia coli and Salmonella enterica on fresh beef. The beef is washed to remove any natural inoculum by rinsing in warm water for 2 minutes. Two strips, single layer, are placed in a sterile 10.8-cup SnapWare airtight container (Model #109842).
(§2) Each strip is inoculated on the surface by placing 20 μL of either E. coli or S. enterica cell suspensions that are adjusted to an optical density of 0.35 (600 nm), and further diluted 1/10. For determination of efficacy, Compound A powder is introduced into the container with a sublimation device (copper tube heated to 200° C. with fan flow at 0.5 liters per minute (L/min)) at a rate required to achieve a final headspace concentration of 100 mg/L. The containers and their contents are then incubated for 2 days at 21° C. After treatment, the beef is washed, and the wash is collected, serially diluted, plated on nutrient agar, and then incubated for an additional 24 hours at 37° C. Bacterial colonies are counted and expressed as colony forming units (CFU/mL), with the log reduction calculated relative to the control.

Salmonella enterica = experiment: in vivo volatile bioassay on fresh beef; conditions: S. enterica from beef; 100 mg/L headspace; 2 days at 21° C.
Experimental: as §1, §2

Botrytis cinerea [1] = experiment: in vivo strawberry assay, release from cellulose paper and Tyvek fabric; conditions: strawberries
Experimental: An in vivo assay is used to evaluate the ability of Compound A to volatilize from different materials and control fungal pathogens. Eight strawberries are placed in a clamshell with stem end facing downwards. […] The clamshells are then placed in a 10.8-cup SnapWare airtight container (Model #109842). Compound A is dissolved in acetone and then evenly sprayed onto cellulose paper and Tyvek® fabric at a rate of 200 milligrams per square meter (mg/m^2). The acetone is allowed to evaporate. Likewise Compound A is dissolved in propylene glycol and evenly sprayed onto cellulose paper and Tyvek® fabric. No evaporation is attempted in this case.
Pieces of material are cut to the appropriate dimensions to deliver a final headspace concentration of 0.4, 2, or 10 mg/L. The containers are close, and placed for three days at 21° C. After treatment, fruit are stored for an additional two days at 21° C. and then evaluated for incidence (%) and severity (0 to 4) of disease, with the results summarized in Table 23.

Botrytis cinerea [2] = experiment: in vivo strawberry assay, release from cardboard or filter paper; conditions: strawberries
Excerpt: An in vivo assay is used to evaluate the ability of Compound A to volatilize from different materials and control fungal pathogens. Eight strawberries are placed in a clamshell with the stem end facing downwards. […] The clamshells are then placed in a 10.8-cup SnapWare airtight container (Model #109842). As a substrate for Compound A, either a 42.5 mm Whatman #1 filter disk (Cat. No. 1001-042) placed on a watch glass or 10 square centimeter (cm^2) pieces of cardboard typically used for packaging strawberries was used. Compound A is dissolved in acetone and either pipetted on the disk or painted on the cardboard at a rate to achieve a final headspace concentration of 0.4, 2, or 10 mg/L. The acetone is permitted to evaporate for five minutes. The containers are closed, and placed for three days at 21° C. After treatment, fruit are stored for an additional two days at 21° C. and then evaluated for incidence (%) and severity (0 to 4) of disease, with the results summarized in Table 24.

Botrytis cinerea [3] = experiment: in vivo volatile bioassay using strawberry
Experimental: In order to assess the in vivo activity of volatile antimicrobial compounds, a volatile bioassay is developed using strawberry. Two fruit are placed inside a 240 mL jar, with the calyx facing downwards. […] The acetone is permitted to evaporate for 5 minutes. The jars are then capped with the lids containing the fungicide, and placed for 5 days at 21° C. After storage, fruit are evaluated for incidence and severity of disease and appearance of phytotoxicity.

Penicillium expansum = experiment: in vivo contact drench assay on apples
Experimental: In order to assess the activity of Compound A (FIG. 1) as a contact drench fungicide, an in vivo assay is developed. […] Compound A is dissolved in water to achieve a final treatment solution concentration of 250, 50, or 10 mg/L. The fruit is dipped in Compound A solution for 1 minute and allowed to dry for 1 hour. Fruit wounds are then inoculated with 30 μL of 1×10^6 per mL Penicillium expansum spore suspension (apple) or Penicillium digitatum spore suspension (orange). Clamshells are then placed in a 10.8-cup SnapWare airtight container (Model #109842) and incubated for 3 days at 21° C.

How did the “Log CFU/mL” value (Escherichia coli; E. coli from beef, 100 mg/L headspace, 2 days at 21° C.) turn out when `OB1OCc2cc(F)ccc21` [Compound A] was run?
The value was 5.09 Log CFU/mL.

What about the Log reduction (Escherichia coli; E. coli from beef, 100 mg/L, relative to the control) of the same compound?
Its Log reduction is 3.17 log.

And the “reduction of E. coli in percent” value (Escherichia coli; beef, 100 mg/L, relative to the control)?
The value was greater than 99.9%.

What about the “Log CFU/mL” value (Salmonella enterica) of the same compound?
The value was 4.95 Log CFU/mL.

What about the “Incidence (%)” value (Botrytis cinerea [1]; 0.4 mg/L, Cellulose Paper) of the same compound?
The value was 37.5%.

And the “Severity (0-4)” value (Botrytis cinerea [1]; 0.4 mg/L, Cellulose Paper)?
The value was 0.8.

And the “Incidence (%)” value (Botrytis cinerea [1]; 0.4 mg/L, Tyvek)?
The value was 31.3%.

What about the “Severity (0-4)” value (Botrytis cinerea [1]; 0.4 mg/L, Tyvek) of the same compound?
The value was 0.5.

What about the “Incidence (%)” value (Botrytis cinerea [1]; 2 mg/L, Cellulose Paper) of the same compound?
Its value is 37.5%.

And the “Severity (0-4)” value (Botrytis cinerea [1]; 2 mg/L, Cellulose Paper)?
Its value is 0.7.

What about the “Incidence (%)” value (Botrytis cinerea [1]; 2 mg/L, Tyvek) of the same compound?
The value was 6.3%.

What about the “Severity (0-4)” value (Botrytis cinerea [1]; 2 mg/L, Tyvek) of the same compound?
Its value is 0.1.

What about the “Severity (0-4)” value (Botrytis cinerea [1]; 10 mg/L, Cellulose Paper) of the same compound?
Its value is 0.2.

What about the “Incidence (%)” value (Botrytis cinerea [1]; 10 mg/L, Tyvek) of the same compound?
Its value is 6.3%.

What about the “Severity (0-4)” value (Botrytis cinerea [1]; 10 mg/L, Tyvek) of the same compound?
The value was 0.3.

And the “Incidence (%)” value (Botrytis cinerea [2]; 0.4 mg/L, Cardboard)?
The value was 87.5%.

And the “Severity (0-4)” value (Botrytis cinerea [2]; 0.4 mg/L, Cardboard)?
Its value is 0.9.

And the “Incidence (%)” value (Botrytis cinerea [2]; 0.4 mg/L, Filter Paper)?
Its value is 56.3%.

What about the “Severity (0-4)” value (Botrytis cinerea [2]; 0.4 mg/L, Filter Paper) of the same compound?
Its value is 2.5.

And the “Incidence (%)” value (Botrytis cinerea [2]; 2 mg/L, Cardboard)?
Its value is 37.5%.

What about the “Severity (0-4)” value (Botrytis cinerea [2]; 2 mg/L, Cardboard) of the same compound?
The value was 0.3.

What about the “Incidence (%)” value (Botrytis cinerea [2]; 2 mg/L, Filter Paper) of the same compound?
Its value is 37.5%.

What about the “Severity (0-4)” value (Botrytis cinerea [2]; 2 mg/L, Filter Paper) of the same compound?
Its value is 0.6.

And the “Incidence (%)” value (Botrytis cinerea [2]; 10 mg/L, Cardboard)?
Its value is 25%.

What about the “Severity (0-4)” value (Botrytis cinerea [2]; 10 mg/L, Cardboard) of the same compound?
The value was 0.2.

And the “Incidence (%)” value (Botrytis cinerea [2]; 10 mg/L, Filter Paper)?
Its value is 18.8%.

And the “Severity (0-4)” value (Botrytis cinerea [2]; 10 mg/L, Filter Paper)?
Its value is 0.3.

And the “Percent (%) Incidence of Botrytis cinerea on Strawberry (in vivo)” value (shortened to “Percent (%) Incidence”) (Botrytis cinerea [3]; 0.005 mg/disk, 5 days at 21° C.)?
The value was 75%.

What about the “Percent (%) Incidence” value (Botrytis cinerea [3]; 0.01 mg/disk, 5 days at 21° C.) of the same compound?
Its value is 100%.

And the “Percent (%) Incidence” value (Botrytis cinerea [3]; 0.02 mg/disk, 5 days at 21° C.)?
Its value is 50%.

What about the “Percent (%) Incidence” value (Botrytis cinerea [3]; 0.04 mg/disk, 5 days at 21° C.) of the same compound?
Its value is 75%.

What about the “Percent (%) Incidence” value (Botrytis cinerea [3]; 0.08 mg/disk, 5 days at 21° C.) of the same compound?
Its value is 0%.

And the “Percent (%) Incidence” value (Botrytis cinerea [3]; 0.16 mg/disk, 5 days at 21° C.)?
The value was 0%.

What about the “Percent (%) Incidence” value (Botrytis cinerea [3]; 0.32 mg/disk, 5 days at 21° C.) of the same compound?
Its value is 0%.

And the “Percent (%) Incidence” value (Botrytis cinerea [3]; 0.64 mg/disk, 5 days at 21° C.)?
The value was 0%.

And the “Percent (%) Incidence” value (Botrytis cinerea [3]; 1.25 mg/disk, 5 days at 21° C.)?
The value was 0%.

What about the “Percent (%) Incidence” value (Botrytis cinerea [3]; 2.5 mg/disk, 5 days at 21° C.) of the same compound?
The value was 0%.

What about the “lowest rate with 100% control of Botrytis cinerea” value (Botrytis cinerea [3]; strawberry, 5 days at 21° C.) of the same compound?
The value was 0.16 mg/disk.

And the appearance of phytotoxicity (Botrytis cinerea [3]; strawberry, any of the rates evaluated (2.5 to 0.005 mg/disk))?
The appearance of phytotoxicity was “no evidence of phytotoxicity”.

And the “Browning (mm)” value (Penicillium expansum; dip 10 mg/L)?
Its value is 8.5 mm.

What about the “Sporulation (mm)” value (Penicillium expansum; dip 10 mg/L) of the same compound?
The value was 2.1 mm.

What about the “Browning (mm)” value (Penicillium expansum; dip 50 mg/L) of the same compound?
The value was 3.7 mm.

What about the “Sporulation (mm)” value (Penicillium expansum; dip 50 mg/L) of the same compound?
Its value is 1.6 mm.

What about the “Browning (mm)” value (Penicillium expansum; dip 250 mg/L) of the same compound?
Its value is 0.8 mm.

What about the “Sporulation (mm)” value (Penicillium expansum; dip 250 mg/L) of the same compound?
The value was 0.5 mm.
